This is an account of results in PubChem BioAssay AID651630 (Sanford-Burnham Center for Chemical Genomics, 2012).

Calls of active or inactive are those of the source.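 Rule for the calls: active = lipid-stain IC50 at or below a set limit, with nuclear-stain toxicity IC50 at least five times higher; inactive = the rest.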 Where only a bound is given, the exact number is not on record here.

The test system of test [1] is DAPI. The experiment in a line: TAG lipid buildup inhibition with viability readout – cell-based, panel, Nile Red and DAPI fluorescence, H9c2, dose response (AID 651630).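 Note: cells exposed to compound overnight before fixation and staining.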 The conditions noted are these: H9c2 cells, DAPI nuclear fluorescence (cytotoxicity counter-readout), oleic acid.
The subject of test [2] is TAG. Described as above. The conditions noted are these: H9c2 cells, Nile Red TAG fluorescence, oleic acid.

A word on the IC50: it is the concentration needed to halve the response being measured. Consider `COc1ccc(CC(=O)Nc2ccc(-c3ccc4nnc(C)n4n3)cc2)cc1OC`, for which the results for the IC50 cytotoxicity (DAPI nuclear signal decrease) in test [1] (mean of runs), in test [1] (run 1) and in test [1] (run 2) were > 25 µM (inactive), more than 25 µM and more than 25 µM, respectively. The figures for the IC50 in test [2] (mean of runs), in test [2] (run 1) and in test [2] (run 2) were 16.5 µM (inactive), 15.2 µM and 17.8 µM, respectively.
For `COc1ccc(CCn2c(-n3nc(C)cc3C)nc3c2c(=O)[nH]c(=O)n3C)cc1`, the values for the IC50 cytotoxicity (DAPI nuclear signal decrease) in test [1] (mean of runs), in test [1] (run 1) and in test [1] (run 2) were > 25 µM (inactive), more than 25 µM and more than 25 µM, respectively. The IC50 in test [2] (mean of runs) was > 25 µM (inactive); in test [2] (run 1) it was more than 25 µM; in test [2] (run 2) it was more than 25 µM.
On to `COc1ccc2sc(-c3ccc(N(C)C)cc3)c(C#CCO)c2c1`, for which the results for the IC50 cytotoxicity (DAPI nuclear signal decrease) in test [1] (mean of runs), in test [1] (run 1) and in test [1] (run 2) were > 25 µM (inactive), more than 25 µM and more than 25 µM, respectively. For the same molecule, the IC50 in test [2] (mean of runs) is 6.43 µM; in test [2] (run 1), 6.72 µM; in test [2] (run 2) it was 6.13 µM.
Consider `Cc1ccc(CN(C(=O)c2csnn2)C(C(=O)NC2CCCC2)c2ccc(C)o2)cc1` (stereo not given), for which the IC50 cytotoxicity (DAPI nuclear signal decrease) in test [1] (mean of runs) is > 25 µM (inactive); in test [1] (run 1) it was more than 25 µM; in test [1] (run 2), more than 25 µM. The IC50 in test [2] (mean of runs) is > 25 µM (inactive); in test [2] (run 1), more than 25 µM; in test [2] (run 2) it was more than 25 µM.
As to `O=c1cc(-c2ccccc2)[nH]c2ccccc12`, the IC50 cytotoxicity (DAPI nuclear signal decrease) was 20.5 µM in test [1] (run 1) and more than 25 µM in test [1] (run 2). The concentration for half-maximal inhibition (IC50) in test [2] (mean of runs) was 3.61 µM; in test [2] (run 1), 2.45 µM; in test [2] (run 2), 4.77 µM.
Consider `O=C(Nc1ccc(-c2csc(Nc3cccc(C(F)(F)F)c3)n2)cc1)c1cc([N+](=O)[O-])cc(C(F)(F)F)c1`, for which the values for the IC50 cytotoxicity (DAPI nuclear signal decrease) in test [1] (mean of runs), in test [1] (run 1) and in test [1] (run 2) were > 25 µM (inactive), more than 25 µM and more than 25 µM, respectively. Also, the IC50 is 10.9 µM in test [2] (mean of runs), 10.8 µM in test [2] (run 1) and 11.1 µM in test [2] (run 2).
For the molecule `OCCCn1c(C2CCCN2c2nc(-c3ccc(Cl)cc3)cs2)nc2cc(Cl)c(N3CCCCC3)cc21` (stereo not given), the IC50 cytotoxicity (DAPI nuclear signal decrease) is > 25 µM (inactive) in test [1] (mean of runs), more than 25 µM in test [1] (run 1) and more than 25 µM in test [1] (run 2). In addition, the IC50 in test [2] (run 1) is 24.6 µM; in test [2] (run 2) it was more than 25 µM.
For `COc1cc(C(CCN2CCCC(C)C2)c2c(OC)cc(OC)c3c(-c4ccccc4)cc(=O)oc23)cc(OC)c1OC` (stereo not given), the results for the IC50 cytotoxicity (DAPI nuclear signal decrease) in test [1] (mean of runs), in test [1] (run 1) and in test [1] (run 2) were > 25 µM (inactive), more than 25 µM and more than 25 µM, respectively. The IC50 is 14.1 µM in test [2] (mean of runs), 14.8 µM in test [2] (run 1) and 13.5 µM in test [2] (run 2).
For the molecule `Cc1cc(C(=O)COC(=O)c2ccc([N+](=O)[O-])o2)c(C)n1CC1CCCO1` (stereo not given), the IC50 cytotoxicity (DAPI nuclear signal decrease) in test [1] (run 1) is 16.4 µM; in test [1] (run 2) it was more than 25 µM. Moreover, the IC50 in test [2] (mean of runs) was 19.2 µM (inactive); in test [2] (run 1) it was 18.9 µM; in test [2] (run 2), 19.4 µM.
On to `Cc1ccc(/C=N/NC(=O)Cc2c[nH]c3ccccc23)c(C)c1`, for which the IC50 cytotoxicity (DAPI nuclear signal decrease) was > 25 µM (inactive) in test [1] (mean of runs), more than 25 µM in test [1] (run 1) and more than 25 µM in test [1] (run 2). For the same molecule, the IC50 in test [2] (run 1) was 19.8 µM; in test [2] (run 2), more than 25 µM.
Regarding `Cc1cc(C)nc(NC(=NCCc2c[nH]c3ccccc23)NC(=O)Nc2ccc(Cl)c(Cl)c2)n1`, the IC50 cytotoxicity (DAPI nuclear signal decrease) in test [1] (mean of runs) was > 25 µM (inactive); in test [1] (run 1), more than 25 µM; in test [1] (run 2), more than 25 µM. In addition, the half-inhibitory concentration (IC50) was 10.2 µM in test [2] (mean of runs), 8.52 µM in test [2] (run 1) and 11.8 µM in test [2] (run 2).
Take `CCOC(=O)c1[nH]c2ccc(OCC)cc2c1NC(=O)CN1CCN(c2ccccc2)CC1`: the IC50 cytotoxicity (DAPI nuclear signal decrease) was > 25 µM (inactive) in test [1] (mean of runs), more than 25 µM in test [1] (run 1) and more than 25 µM in test [1] (run 2). Further, the IC50 was 22.7 µM (inactive) in test [2] (mean of runs), 20.4 µM in test [2] (run 1) and 25 µM in test [2] (run 2).
In the case of `C=CCC[C@@H](Cc1ccc(F)cc1)C(=O)OC[C@H](Cc1c[nH]c2ccccc12)NC(=O)[C@@H](CC=C)CC(=O)N(CCO)Cc1ccccc1`, the IC50 cytotoxicity (DAPI nuclear signal decrease) in test [1] (mean of runs) is > 25 µM (inactive); in test [1] (run 1), more than 25 µM; in test [1] (run 2), more than 25 µM. The values for the IC50 in test [2] (mean of runs), in test [2] (run 1) and in test [2] (run 2) were 13.1 µM, 10.7 µM and 15.4 µM, respectively.
As for `Cc1[nH]c2ccccc2c1/C=N/Nc1nc(Nc2ccc(F)cc2)nc(N2CCOCC2)n1`, the IC50 cytotoxicity (DAPI nuclear signal decrease) in test [1] (mean of runs) was > 25 µM (inactive); in test [1] (run 1), more than 25 µM; in test [1] (run 2), more than 25 µM. Moreover, the IC50 in test [2] (mean of runs) was 20.6 µM (inactive); in test [2] (run 1), 21.6 µM; in test [2] (run 2) it was 19.7 µM.
